In patent US11352352B2, “Aminopyrimidine compound, preparation method therefor and use thereof” (BEIJING ADAMADLE BIOTECHNOLOGY LIMITED LIABILITY COMPANY, priority 2017, dated 2022):

How the values were obtained:
Assay in all cases: Cell proliferation inhibition experiment, CellTiter-Glo (CTG) method
Assay type in all cases: cell-based
NCI-H1975 = details: for IC50: Homo sapiens, NCI-H1975, 72 h, NCI-H1975 cells, CTG, 3 days; for A-431/NCI-H1975 Selectivity: ratio of A-431 IC50 to NCI-H1975 IC50
Summary of the method: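 NCI-H1975 cells with viability above 90% by trypan blue were seeded at 90 μL per well in black 96-well plates and incubated overnight at 37° C., 5% CO2. Compounds were added at nine concentrations in triplicate, and viability was measured with CellTiter-Glo luminescence on EnVision. IC50 came from non-linear S-curve fitting in GraphPad Prism 5.0.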

PC-9 = details: Homo sapiens, PC-9, 72 h, PC-9 cells, 3 days
Summary of the method: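 Cells in log-phase growth (viability above 90% by trypan blue) were seeded at 90 μL per well in black-walled, clear-bottom 96-well plates and incubated overnight at 37° C., 5% CO2. A T0 plate was read the next day. Test compounds were added at nine concentrations in triplicate with a solvent control. Viability was measured by CellTiter-Glo luminescence on EnVision, and IC50 came from non-linear S-curve fitting in GraphPad Prism 5.0.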

A-431 = details: Homo sapiens, A-431, 72 h, A-431 cells, 3 days
Summary of the method: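 For each line, compound is added at nine threefold-spaced concentrations, highest 30 μM (A-431) or 1.111 μM (NCI-H1975, PC-9), and cells grow 3 days at 37 °C. CellTiter-Glo luminescence gives survival relative to solvent control, fitted to yield IC50.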

IC50 (NCI-H1975) [nM]	IC50 (PC-9) [nM]	IC50 (A-431) [nM]	Compound	A-431/NCI-H1975 Selectivity (NCI-H1975)
90.4	64.7	2980	C=CC(=O)Nc1cc(Nc2nccc(-c3ccc4c(cnn4C)c3)n2)c(OC2CC2)cc1N(C)CCN(C)C [compound 292]	32.9
21.6	16.3	1570	C=CC(=O)Nc1cc(Nc2cc(-c3ccc4c(cnn4C)c3)ncn2)c(OC)cc1N(C)CCO [compound 269]	72.9
42.9	65.4	2180	C=CC(=O)Nc1cc(Nc2nccc(-c3ccc4c(cnn4CC)c3)n2)c(OCC)cc1N(C)CCN(C)C [compound 243]	50.8
22.9	211	1040	C=CC(=O)Nc1cc(Nc2nccc(-c3ccc4c(cnn4C)c3)n2)c(OC)cc1N(C)CCN(C)CC [compound 241]	45.3
37.1	37.4	2990	C=CC(=O)Nc1cc(Nc2nccc(-c3ccc4c(cnn4C)c3)n2)c(OC(F)F)cc1N(C)CCNC(C)(C)C [compound 247]	80.5
25.7	21.4	2900	C=CC(=O)Nc1cc(Nc2nccc(-c3ccc4c(cnn4C)c3)n2)c(OC)cc1N(C)CCO [compound 279]	112.8
58.6	42.7	2070	C=CC(=O)Nc1cc(Nc2nccc(-c3ccc4c(cnn4C)c3)n2)c(OC)cc1N(C)CCN(C)C(C)C [compound 257]	35.3
60	38.7	2080	C=CC(=O)Nc1cc(Nc2nccc(-c3ccc4c(cnn4C)c3)n2)c(OC)cc1N1CCC(N2C[C@@H](C)O[C@@H](C)C2)CC1 [compound 236]	34.7
46.4	30	2010	C=CC(=O)Nc1cc(Nc2nccc(-c3ccc4nc(C)sc4c3)n2)c(OC)cc1N(C)CCN(C)C [compound 255]	43.4
26.3	13.4	670	C=CC(=O)Nc1cc(Nc2cc(-c3ccc4c(cnn4C)c3)ncn2)c(OC)cc1N1CCC(N(C)C)C1 (stereo not shown) [compound 284]	25.5
5.5	22.1	924	C=CC(=O)Nc1cc(Nc2cc(-c3ccc4c(cnn4C)c3)ncn2)c(OC)cc1N1C[C@@H](C)N[C@@H](C)C1 [compound 264]	

The remaining lines, values behind:

Compound	IC50 (NCI-H1975) [nM]	IC50 (PC-9) [nM]	IC50 (A-431) [nM]	A-431/NCI-H1975 Selectivity (NCI-H1975)
C=CC(=O)Nc1cc(Nc2nccc(-c3ccc4c(cnn4C)c3)n2)c(OC)cc1N1CCN(C2CCOCC2)CC1 [compound 235]	94	24.9	2400	25.5
C=CC(=O)Nc1cc(Nc2cc(-c3ccc4cnn(C)c4c3)ncn2)c(OC)cc1N1CCN(C)C[C@H]1C [compound 44]	102	32.8	1600	15.7
C=CC(=O)Nc1cc(Nc2cc(-c3ccc4c(cnn4C)c3)ncn2)c(OC(F)F)cc1N1C[C@@H](C)N(C)[C@@H](C)C1 [compound 97]	33.1	22.6	798	24.1
C=CC(=O)Nc1cc(Nc2cc(-c3ccc4c(cnn4C(C)C)c3)ncn2)c(OC)cc1N(C)CCN(C)C [compound 15]	21.6	12.7	1290	59.7
C=CC(=O)Nc1cc(Nc2cc(-c3ccc4cnn(C)c4c3)ncn2)c(OC)cc1N1CCN(C)[C@@H](C)C1 [compound 50]	59.2	47.5	1080	18.2
C=CC(=O)Nc1cc(Nc2cc(-c3ccc4cnn(C)c4c3)ncn2)c(OC)cc1N(C)CCN(C)C(C)C [compound 196]	36.4	20.7	2020	55.4
C=CC(=O)Nc1cc(Nc2cc(-c3ccc4cnn(C)c4c3)ncn2)c(OC)cc1N1CCN(C2COC2)CC1 [compound 219]	49.4	45.9	2510	50.8
C=CC(=O)Nc1cc(Nc2cc(-c3ccc4c(cnn4C)c3)ncn2)c(OC)cc1N(C)CCN1CCCC1 [compound 36]	31.4	22	1010	32.3
C=CC(=O)Nc1cc(Nc2nccc(-c3ccc4c(cnn4C)c3)n2)c(OC)cc1N1CCC(N2CCN(C(C)C)CC2)CC1 [compound 234]	80.1	32.7	2460	30.7
C=CC(=O)Nc1cc(Nc2cc(-c3ccc4cnn(C)c4c3)ncn2)c(OC(F)F)cc1N1CCC(N2C[C@@H](C)N(C)[C@@H](C)C2)CC1 [compound 163]	18.5	13.8	834	45.1
C=CC(=O)Nc1cc(Nc2cc(-c3ccc4cnn(C)c4c3)ncn2)c(OC)cc1N1CCN(C2CCOCC2)CC1 [compound 46]	82.8	32.7	1250	15.1
C=CC(=O)Nc1cc(Nc2cc(-c3cc4cnn(C)c4cc3F)ncn2)c(OC)cc1N1CCC(N(CC)CC)CC1 [compound 193]	52.8	30.9	1480	28.0
C=CC(=O)Nc1cc(Nc2nccc(-c3ccc4c(cnn4C)c3)n2)c(OC)cc1N(C)C1CCN(C)CC1 [compound 231]	96.8	76.5	1730	17.8
C=CC(=O)Nc1cc(Nc2cc(-c3ccc4c(cnn4C)c3)ncn2)c(OC)cc1N(C)CCN(C)C [compound 1]	4.7	5.6	890	
C=CC(=O)Nc1cc(Nc2cc(-c3ccc4c(cnn4C)c3)ncn2)c(OC(F)F)cc1N1CCN(CC2CC2)CC1 [compound 149]	28.4	674	1370	48.2
C=CC(=O)Nc1cc(Nc2cc(-c3ccc4c(cnn4C)c3)ncn2)c(OC(F)F)cc1OCCN(C)C(C)C [compound 187]	53	46.8	2410	45.4
C=CC(=O)Nc1c(N(C)CCN(C)CC)cc(OC)c(Nc2cc(-c3ccc4c(cnn4C)c3)ncn2)c1F [compound 200]	14.2	27	984	
C=CC(=O)Nc1cc(Nc2cc(-c3ccc4cnn(C)c4c3)ncn2)c(OC)cc1N1CCC(N(CC)CC)CC1 [compound 166]	16	8.9	986	
C=CC(=O)Nc1cc(Nc2cc(-c3ccc4cnn(C)c4c3)ncn2)c(OC)cc1N1CCN(CCN(C)C)CC1 [compound 77]	34.5	16.4	1150	33.5
C=CC(=O)Nc1cc(Nc2cc(-c3ccc4ncsc4c3)ncn2)c(OC)cc1N(C)CCN(C)C [compound 63]	4.1	6.5	540	130.7
C=CC(=O)Nc1cc(Nc2cc(-c3ccc4c(cnn4C)c3)ncn2)c(OC)cc1N(C)C1CCC(N2CCN(C)CC2)CC1 (stereo not shown) [compound 72]	45.2	29.7	1900	42.1
